# Measured values taken from paper PMC6383519 (Cancer immunology, immunotherapy : CII, 2013).
# Entries after “also recorded” stand apart in the source; their conditions may differ.
# System: C1RA3 cells pulsed with the corresponding peptide
# Assay: Lysis of cells pulsed with the corresponding peptide
# Format: cell-based, human
# Conditions: T-cell lines from PBMCs of HLA-A3 patients vaccinated with PANVAC
row,Sequence,lysis of C1RA3 cells pulsed with the corresponding peptide
1,ALFIVYLIAK [Peptide C4A],seen
2,SLFRSPYEK [Peptide C5A],seen

# System: MUC1-specific T-cell lines
# Assay: IFN-γ production by peptide-specific T-cell lines
# Format: cell-based, human
# Conditions: ranking among 5 potential MUC1-C agonist epitopes
row,Sequence,Level of IFN-γ produced by peptide-specific CTL (rank)
1,YLAIVYLIAL [Peptide C1A],3
2,YLIALAVCQV [Peptide C2A],1
3,YLLVLVCVLV [Peptide C9A],Negative
4,YLSDVSVSDV [Peptide C8A],4
5,YLSYTNPAV [Peptide C3A],2

# System: PBMCs of cancer patients
# Assay: Establishment of peptide-specific T-cell lines
# Format: cell-based, human
# Conditions: PBMCs of vaccinated cancer patients, autologous DCs pulsed with 20 μg/ml peptide
row,Sequence,generation of T-cell lines with the peptide
1,ALAIVYLIAL [Peptide C4],grew poorly
2,ALFIVYLIAK [Peptide C4A],could be derived
3,APDTRPAPG [Peptide V2],could not be generated
4,KYHPMSEYAL [Peptide C6A],could be generated
5,KYTNPAVAL [Peptide C7A],could be generated
6,SLFRSPYEK [Peptide C5A],could be derived
7,STAPPAHGV [Peptide V1],could not be generated
8,STDRSPYEK [Peptide C5],grew poorly
9,SYTNPAVAA [Peptide C7],grew poorly; also recorded: could be generated
10,YLAPPAHGV [Peptide V1A],successfully generated
11,YLDTRPAPV [Peptide V2A],successfully generated

# System: MUC1-specific T-cell lines
# Assay: not given
# Format: cell-based, human
# Conditions: HLA-A24; T-cell line T-C7A stimulated 24h with B-cells pulsed with the peptide
Sequence,GM-CSF,IFN-γ,IL-2,IL-6,IL-8,IL-10,TNFα
KYTNPAVAL [Peptide C7A],910 pg/ml/2.5 × 10^5 T cells,"2,000 pg/ml/2.5 × 10^5 T cells",<2.4 pg/ml/2.5 × 10^5 T cells,40 pg/ml/2.5 × 10^5 T cells,360 pg/ml/2.5 × 10^5 T cells,375 pg/ml/2.5 × 10^5 T cells,70 pg/ml/2.5 × 10^5 T cells
SYTNPAVAA [Peptide C7],215 pg/ml/2.5 × 10^5 T cells,680 pg/ml/2.5 × 10^5 T cells,<2.4 pg/ml/2.5 × 10^5 T cells,<2.4 pg/ml/2.5 × 10^5 T cells,112 pg/ml/2.5 × 10^5 T cells,92 pg/ml/2.5 × 10^5 T cells,30 pg/ml/2.5 × 10^5 T cells

# Same assay, conditions: HLA-A24; T-cell line T-C7 stimulated 24h with B-cells pulsed with the peptide
Sequence,GM-CSF,IFN-γ,IL-2,IL-6,IL-8,IL-10,TNFα
KYTNPAVAL [Peptide C7A],300 pg/ml/2.5 × 10^5 T cells,"1,279 pg/ml/2.5 × 10^5 T cells",<2.4 pg/ml/2.5 × 10^5 T cells,7.7 pg/ml/2.5 × 10^5 T cells,7.3 pg/ml/2.5 × 10^5 T cells,45 pg/ml/2.5 × 10^5 T cells,30 pg/ml/2.5 × 10^5 T cells
SYTNPAVAA [Peptide C7],237 pg/ml/2.5 × 10^5 T cells,750 pg/ml/2.5 × 10^5 T cells,<2.4 pg/ml/2.5 × 10^5 T cells,6.4 pg/ml/2.5 × 10^5 T cells,6.8 pg/ml/2.5 × 10^5 T cells,25 pg/ml/2.5 × 10^5 T cells,21 pg/ml/2.5 × 10^5 T cells

# Same assay, conditions: stimulation of the T-cell line generated with the C6A agonist peptide
row,Sequence,IFN-γ
1,KYHPMSEYAL [Peptide C6A],"2,651 pg/ml/10^5 cells"

# System: HLA-A2 molecule on T2 cells
# Assay: T2-cell binding
# Design: species or system human
# Conditions: T2-A2 cells, peptide 12.5 μg/ml, overnight incubation, flow cytometry, mean fluorescence intensity
row,Sequence,Actual binding
1,ALAIVYLIAL [Peptide C1],249 MFI
2,APDTRPAPG [Peptide V2],210 MFI
3,SLSYTNPAV [Peptide C3],326 MFI
4,STAPPAHGV [Peptide V1],166 MFI
5,YLAIVYLIAL [Peptide C1A],245 MFI
6,YLAPPAHGV [Peptide V1A],486 MFI
7,YLDTRPAPV [Peptide V2A],647 MFI
8,YLIALAVCQC [Peptide C2],211 MFI
9,YLIALAVCQV [Peptide C2A],299 MFI
10,YLSYTNPAV [Peptide C3A],342 MFI

# Same assay, conditions: ranking among 5 potential MUC1-C agonist epitopes
row,Sequence,T2-A2 binding (rank)
1,YLAIVYLIAL [Peptide C1A],5
2,YLIALAVCQV [Peptide C2A],3
3,YLLVLVCVLV [Peptide C9A],4
4,YLSDVSVSDV [Peptide C8A],2
5,YLSYTNPAV [Peptide C3A],1

# System: tumor cells endogenously expressing the native antigen
# Assay: Ranking of killing by peptide-specific CTL
# Format: cell-based, human
# Conditions: ranking among 5 potential MUC1-C agonist epitopes
row,Sequence,Level of killing by peptide-specific CTL (rank)
1,YLAIVYLIAL [Peptide C1A],2
2,YLIALAVCQV [Peptide C2A],1
3,YLLVLVCVLV [Peptide C9A],Negative
4,YLSDVSVSDV [Peptide C8A],Negative
5,YLSYTNPAV [Peptide C3A],3

# System: MUC1 peptide-specific CD8+ T cells
# Assay: Tetramer staining
# Format: cell-based, human
# Conditions: HLA-A3 tetramers; Supplemental Fig. 3
row,Sequence,binding of T-cell line to corresponding tetramer
1,ALFIVYLIAK [Peptide C4A],20.2%
2,SLFRSPYEK [Peptide C5A],16.2%

# Same assay, conditions: negative control tetramer; Supplemental Fig. 3
row,Sequence,binding of T-cell line to the control tetramer
1,ALFIVYLIAK [Peptide C4A],< 0.04%
2,SLFRSPYEK [Peptide C5A],< 0.04%
